Literature values as cited in patent publication US20040109898A1, “Topical composition for heightened sensitivity” (priority 2002, published 2004).
Read-outs that look alike come from different tables or passages of the source.

Legend:
[1] = tested on: panel of individuals
[2] = tested on: palate
[3] = cold, heat, cooking, freezing

Structure (SMILES) | Scoville Unit (SU) rating ([1]; pure, individual capsaicinoids) [million SU] | detectable to the palate in dilutions of [2] | solubility in alcohols, fats, and oils (alcohols, fats, and oils) | solubility in water (water) | Scoville Units rating ([1]; individual capsaicinoid) [million Scoville Units] | stability / retention of potency [3] | Scoville Unit (SU) rating [1] [million SU]
COc1cc(CNC(=O)CCCCCCCC(C)C)ccc1O [Homodihydrocapsaicin, 9-methyl-N-vanillyl-decanamide] | 8.6 |  |  |  |  |  | 
COc1cc(CNC(=O)CCCC/C=C/C(C)C)ccc1O [Capsaicin, 8-methyl-N-vanillyl-6-(E)-nonenamide] | 16 | one to seventeen million | very soluble | slightly soluble | 16 | seemingly unaffected by cold or heat, which retains its original potency despite time, cooking, or freezing | 
COc1cc(CNC(=O)CCCCC/C=C/C(C)C)ccc1O [Homocapsaicin, 9-methyl-N-vanillyl-7-(E)-decenamide] |  |  |  |  |  |  | 8.6
